Measurements: patent US10087185B2 (Janssen Pharmaceutica NV, priority 2016, dated 2018)

biological target: TARP γ8 dependent AMPA receptor (GRIA1o-CACNG8 fusion construct) (Homo sapiens (Human), UniProt P42261+Q8WXS5); assay: Calcium flux assay (FLIPR), inhibition of glutamate response of GluA1o-γ8 channel; format: cell-based; conditions: HEK293 cells stably expressing GRIA1o-CACNG8 fusion; calcium flux after 15 μM glutamate; negative log of the IC50 in molar
Source text: This assay was used to test compounds for their ability to inhibit TARP γ8 dependent AMPA receptor activity. The AMPA receptor is a non-selective cation channel activated by glutamate. […] But, this desensitization is incomplete, and a substantial steady-state current remains in the sustained presence of glutamate (Cho et al. (2007). “Two families of TARP isoforms that have distinct effects on the kinetic properties of AMPA receptors and synaptic currents.” Neuron 55(6): 890-904).
An in vitro assay was used to determine the potency of test compounds as inhibitors of the glutamate response of the channel formed by GluA10-γ8. To ensure a 1:1 stoichiometry of GluA1o and γ8 subunits in the expressed channel, a fusion of the cDNAs for GRIA1o and CACNG8 was used. Following Shi et al (2009) “The stoichiometry of AMPA receptors and TARPs varies by neuronal cell type.” Neuron 62(5): 633-640), the C-terminus of the cDNA for GRIA1o was fused to the N-terminus of the cDNA for γ8. The linker sequence was […]. Channels expressed with this construct appear to have similar properties to channels formed by co-expression of GRIA1o with an excess of CACNG8 (Shi et al. 2009). A clonal cell line in HEK293 cells stably expressing this construct, with a geneticin selection marker, was generated for use in this assay.
Cell expressing the GRIA1o-CACNG8 fusion construct were grown in a monolayer in 96- or 384-well microtiter plates. They were washed with assay buffer (135 mM NaCl, 4 mM KCl, 3 mM CaCl2, 1 mM MgCl2, 5 mM glucose, 10 mM HEPES, pH 7.4, 300 mOs) using a Biotek EL405 plate washer. The cells were then loaded with a calcium-sensitive dye (Calcium-5 or Calcium-6, Molecular Devices) and the test compounds at a range of concentrations. Calcium flux following the addition of 15 μM glutamate was monitored using a Molecular Devices FLIPR Tetra.
The fluorescence in each well was normalized to the fluorescence of negative and positive control wells. The negative control wells had no added compounds, and the positive control wells had been incubated with 10 μM CP465022 (a non-subtype-selective AMPA receptor antagonist) (Lazzaro et al. (2002). “Functional characterization of CP-465,022, a selective, noncompetitive AMPA receptor antagonist.” Neuropharmacology 42(2): 143-153). The responses to glutamate as functions of the test compound concentrations were fitted to a four-parameter logistic function. The fitted parameter corresponding to the midpoint was taken to be the potency of inhibition of the compound. The data in Table 4 below illustrates the observed potency for the compounds described herein. pIC50 refers to the negative log of the IC50 in molar.

TARP γ8 dependent AMPA receptor (GRIA1o-CACNG8 fusion construct), sequence (P42261 other isoform, or with tags, fused parts or gaps): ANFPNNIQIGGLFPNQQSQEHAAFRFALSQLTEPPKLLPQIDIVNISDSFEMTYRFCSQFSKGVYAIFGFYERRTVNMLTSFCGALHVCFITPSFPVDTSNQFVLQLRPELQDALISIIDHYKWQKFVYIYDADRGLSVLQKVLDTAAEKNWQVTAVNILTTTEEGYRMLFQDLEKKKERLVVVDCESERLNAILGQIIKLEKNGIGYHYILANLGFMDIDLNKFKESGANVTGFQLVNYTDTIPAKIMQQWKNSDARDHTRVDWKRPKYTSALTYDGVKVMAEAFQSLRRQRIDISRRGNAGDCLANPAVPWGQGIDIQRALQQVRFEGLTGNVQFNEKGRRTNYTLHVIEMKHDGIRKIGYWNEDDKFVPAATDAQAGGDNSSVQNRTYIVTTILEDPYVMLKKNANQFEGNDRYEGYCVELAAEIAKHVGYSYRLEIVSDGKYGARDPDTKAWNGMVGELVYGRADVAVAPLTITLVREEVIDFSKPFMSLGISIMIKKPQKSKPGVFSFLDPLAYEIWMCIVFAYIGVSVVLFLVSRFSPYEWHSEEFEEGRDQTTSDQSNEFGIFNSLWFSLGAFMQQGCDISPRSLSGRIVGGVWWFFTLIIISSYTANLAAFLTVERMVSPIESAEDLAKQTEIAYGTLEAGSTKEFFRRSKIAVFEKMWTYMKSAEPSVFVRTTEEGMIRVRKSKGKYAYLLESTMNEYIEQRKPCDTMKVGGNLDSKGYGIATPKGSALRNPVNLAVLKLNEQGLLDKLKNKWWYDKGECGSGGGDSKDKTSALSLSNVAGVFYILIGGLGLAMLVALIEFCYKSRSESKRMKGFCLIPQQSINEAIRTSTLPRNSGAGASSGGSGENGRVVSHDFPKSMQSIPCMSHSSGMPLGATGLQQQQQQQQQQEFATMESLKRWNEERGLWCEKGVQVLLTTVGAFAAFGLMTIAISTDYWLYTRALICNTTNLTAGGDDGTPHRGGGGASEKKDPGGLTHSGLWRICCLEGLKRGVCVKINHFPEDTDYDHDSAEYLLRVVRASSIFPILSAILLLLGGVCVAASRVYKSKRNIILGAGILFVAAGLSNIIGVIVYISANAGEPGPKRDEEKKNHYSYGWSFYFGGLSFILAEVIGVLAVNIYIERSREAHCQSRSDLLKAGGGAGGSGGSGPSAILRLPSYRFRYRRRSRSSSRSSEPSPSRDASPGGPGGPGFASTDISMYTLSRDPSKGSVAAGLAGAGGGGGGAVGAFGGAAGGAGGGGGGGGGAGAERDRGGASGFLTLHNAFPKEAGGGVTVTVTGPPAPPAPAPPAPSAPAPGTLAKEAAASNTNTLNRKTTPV

Row | SMILES | pIC50 | IC50
1 | Cc1cc(-c2c(C(F)(F)F)cc(C)c3nc(C(F)F)nn23)cc2cn[nH]c12 [Example 86, 2-(Difluoromethyl)-8-methyl-5-(7-methyl-1H-indazol-5-yl)-6-(trifluoromethyl)-[1,2,4]triazolo[1,5-a]pyridine] | 9.4 | –
2 | Cc1cc(C(F)(F)F)c(-c2cc(Cl)c3c(c2)CC(=O)N3)n2nc(C(F)(F)F)nc12 [Example 103] | – | 0.158 nM
3 | Cc1cc(-c2c(C(F)(F)F)ccc3cc(C(C)C)nn23)cc2c1NC(=O)C2 [Example 71, 5-(2-Isopropyl-6-(trifluoromethyl)pyrazolo[1,5-a]pyridin-7-yl)-7-methylindolin-2-one] | – | 0.0158 nM
4 | COc1cc(-c2c(C(F)(F)F)ccc3nc(C(F)F)nn23)cc2c1NC(=O)C2 [Example 12, 5-(2-(Difluoromethyl)-6-(trifluoromethyl)-[1,2,4]triazolo[1,5-a]pyridin-5-yl)-7-methoxyindolin-2-one] | – | 5.01 nM
5 | Cc1cc(C(F)F)c(-c2cc(Cl)c3[nH]ncc3c2)n2nc(C3CC3)nc12 [Example 112, 5-(7-Chloro-1H-indazol-5-yl)-2-cyclopropyl-6-(difluoromethyl)-8-methyl-[1,2,4]triazolo[1,5-a]pyridine] | – | 0.1 nM
6 | CCc1nc2ccc(C(F)F)c(-c3cc(C)c4[nH]ncc4c3)n2n1 [Example 45, 6-(Difluoromethyl)-2-ethyl-5-(7-methyl-1H-indazol-5-yl)-[1,2,4]triazolo[1,5-a]pyridine] | – | 1.26 nM
7 | COc1ccc2nc(C(F)(F)F)nn2c1-c1cc(Cl)c2[nH]ncc2c1 [Example 50, 5-(7-Chloro-1H-indazol-5-yl)-6-methoxy-2-(trifluoromethyl)-[1,2,4]triazolo[1,5-a]pyridine] | – | 1 nM
8 | Cc1cc(-c2c(C(F)F)cc(C)c3nc(C4CC4)nn23)cc2cn[nH]c12 [Example 114, 2-Cyclopropyl-6-(difluoromethyl)-8-methyl-5-(7-methyl-1H-indazol-5-yl)-[1,2,4]triazolo[1,5-a]pyridine] | – | 0.398 nM
9 | CCc1cc(C(F)(F)F)c(-c2cc(Cl)c3[nH]ncc3c2)n2nc(C3CC3)nc12 [Example 80, 5-(7-Chloro-1H-indazol-5-yl)-2-cyclopropyl-8-ethyl-6-(trifluoromethyl)-[1,2,4]triazolo[1,5-a]pyridine] | – | 0.158 nM
10 | Cc1cc(-c2c(C(F)F)ccc3nc(C(F)(F)F)nn23)cc2c1NC(=O)C2 [Example 19, 5-[6-(Difluoromethyl)-2-(trifluoromethyl)-[1,2,4]triazolo[1,5-a]pyridin-5-yl]-7-methyl-indolin-2-one] | – | 0.631 nM
11 | CCCc1nc2c(C)cc(C(F)(F)F)c(-c3cc(C)c4c(c3)CC(=O)N4)n2n1 [Example 85, 7-Methyl-5-(8-methyl-2-propyl-6-(trifluoromethyl)-[1,2,4]triazolo[1,5-a]pyridin-5-yl)indolin-2-one] | – | 0.316 nM
12 | COc1ccc2nc(C(F)F)nn2c1-c1cc(C)c2[nH]ncc2c1 [Example 14, 2-(Difluoromethyl)-6-methoxy-5-(7-methyl-1H-indazol-5-yl)-[1,2,4]triazolo[1,5-a]pyridine] | – | 5.01 nM
13 | CCOc1nc2c(C)cc(C(F)(F)F)c(-c3cc(Cl)c4[nH]ncc4c3)n2n1 [Example 117, 5-(7-Chloro-1H-indazol-5-yl)-2-ethoxy-8-methyl-6-(trifluoromethyl)-[1,2,4]triazolo[1,5-a]pyridine] | – | 2.51 nM
14 | Cc1cc(C(F)F)c(-c2cc(Cl)c3c(c2)CC(=O)N3)n2nc(C(F)(F)F)nc12 [Example 110, 7-Chloro-5-(6-(difluoromethyl)-8-methyl-2-(trifluoromethyl)-[1,2,4]triazolo[1,5-a]pyridin-5-yl)indolin-2-one] | – | 0.794 nM
15 | CC(C)c1cc2ccc(C(F)(F)F)c(-c3cc(Cl)c4c(c3)CC(=O)N4)n2n1 [Example 72, 5-(2-Isopropyl-6-(trifluoromethyl)pyrazolo[1,5-a]pyridin-7-yl)-7-chloroindolin-2-one] | – | 0.0126 nM
16 | Cc1cc(-c2c(C(F)(F)F)ccc3nc(C(F)F)nn23)cc2c1NC(=O)C2 [Example 10, 7-Methyl-5-(2-(difluoromethyl)-6-(trifluoromethyl)-[1,2,4]triazolo[1,5-a]pyridin-5-yl)indolin-2-one] | – | 0.794 nM

Row | SMILES | pIC50 | IC50
17 | Cc1cc(C(F)F)c(-c2cc(Cl)c3c(c2)CC(=O)N3)n2nc(C3CC3)nc12 [Example 113, 7-Chloro-5-(2-cyclopropyl-6-(difluoromethyl)-8-methyl-[1,2,4]triazolo[1,5-a]pyridin-5-yl)indolin-2-one] | – | 0.316 nM
18 | Cc1cc(-c2c(C(F)(F)F)ccc3cc(C4CC4)nn23)cc2c1NC(=O)C2 [Example 67, 5-(2-Cyclopropyl-6-(trifluoromethyl)pyrazolo[1,5-a]pyridin-7-yl)-7-methylindolin-2-one] | – | 0.0501 nM
19 | Cc1nc2c(C)cc(C(F)(F)F)c(-c3cc(Cl)c4[nH]ncc4c3)n2n1 [Example 116, 5-(7-Chloro-1H-indazol-5-yl)-2,8-dimethyl-6-(trifluoromethyl)-[1,2,4]triazolo[1,5-a]pyridine] | – | 2.51 nM
20 | Cc1cc(-c2c(C(F)(F)F)ccc3nc(C(C)C)nn23)cc2cn[nH]c12 [Example 37, 2-Isopropyl-5-(7-methyl-1H-indazol-5-yl)-6-(trifluoromethyl)-[1,2,4]triazolo[1,5-a]pyridine] | – | 0.316 nM
21 | CCc1cc(-c2c(C(F)(F)F)cc(C)c3nc(C(F)(F)F)nn23)cc2c1NC(=O)C2 [Example 104, 7-Ethyl-5-(8-methyl-2,6-bis(trifluoromethyl)-[1,2,4]triazolo[1,5-a]pyridin-5-yl)indolin-2-one] | – | 0.158 nM
22 | Cc1cc(-c2c(-c3ccc(F)cc3)ccc3nc(C4CC4)nn23)cc2cn[nH]c12 [Example 62, 2-Cyclopropyl-6-(4-fluorophenyl)-5-(7-methyl-1H-indazol-5-yl)-[1,2,4]triazolo[1,5-a]pyridine] | – | 0.126 nM
23 | Cc1cc(C(F)F)c(-c2cc(Cl)c3[nH]ncc3c2)n2nc(C(F)(F)F)nc12 [Example 109, 5-(7-Chloro-1H-indazol-5-yl)-6-(difluoromethyl)-8-methyl-2-(trifluoromethyl)-[1,2,4]triazolo[1,5-a]pyridine] | 9.6 | –
24 | CCc1nc2c(F)cc(C(F)(F)F)c(-c3cc(Cl)c4c(c3)CC(=O)N4)n2n1 [Example 32, 7-Chloro-5-[2-ethyl-8-fluoro-6-(trifluoromethyl)-[1,2,4]triazolo[1,5-a]pyridin-5-yl]indolin-2-one] | – | 2 nM
25 | Cc1cc(C(F)(F)F)c(-c2cc(Cl)c3c(c2)CC(=O)N3)n2nc(C3CC3)nc12 [Example 75, 7-Chloro-5-(2-cyclopropyl-8-methyl-6-(trifluoromethyl)-[1,2,4]triazolo[1,5-a]pyridin-5-yl)indolin-2-one] | – | 0.126 nM
26 | Cc1cc(C(F)F)c(-c2cc(Cl)c3c(c2)CC(=O)N3)n2nc(C(F)(F)F)cc12 [Example 124, 7-Chloro-5-[6-(difluoromethyl)-4-methyl-2-(trifluoromethyl)pyrazolo[1,5-a]pyridin-7-yl]indolin-2-one] | – | 0.251 nM
27 | COc1cc(-c2c(C(F)F)ccc3nc(C(F)(F)F)nn23)cc2c1NC(=O)C2 [Example 20, 5-[6-(Difluoromethyl)-2-(trifluoromethyl)-[1,2,4]triazolo[1,5-a]pyridin-5-yl]-7-methoxy-indolin-2-one] | – | 2.51 nM
28 | CCc1nc2ccc(C(F)(F)F)c(-c3cc(Cl)c4c(c3)CC(=O)N4)n2n1 [Example 27, 7-Chloro-5-(2-ethyl-6-(trifluoromethyl)-[1,2,4]triazolo[1,5-a]pyridin-5-yl)indolin-2-one] | – | 1.26 nM
29 | Cc1cc(-c2c(C(F)(F)F)cc(C)c3nc(C4CC4)nn23)cc2c1NC(=O)C2 [Example 99, 5-(2-Cyclopropyl-8-methyl-6-(trifluoromethyl)-[1,2,4]triazolo[1,5-a]pyridin-5-yl)-7-methylindolin-2-one] | – | 0.251 nM
30 | FC(F)(F)c1ccc2nc(C3CC3)nn2c1-c1cc(Cl)c2[nH]ncc2c1 [Example 38, 5-(7-Chloro-1H-indazol-5-yl)-2-cyclopropyl-6-(trifluoromethyl)-[1,2,4]triazolo[1,5-a]pyridine] | – | 0.126 nM
31 | Cc1nc2ccc(C(F)(F)F)c(-c3cc(Cl)c4[nH]ncc4c3)n2n1 [Example 21, 5-(7-Chloro-1H-indazol-5-yl)-2-methyl-6-(trifluoromethyl)-[1,2,4]triazolo[1,5-a]pyridine] | – | 0.631 nM
